According to patent publication US5594024A, “Centrally actig substituted phenylazacycloalkanes” (priority 1995, dated 1997):
Read-outs that look alike come from different tables or passages of the source.

How the values were obtained:
D2 receptors = target: T1, D2 receptors (Rattus norvegicus, UniProt P61169); test: D2 antagonist binding ([3H]-spiperone), rat striatum
T1 construct: Preparation of rat striatal membranes for (3H)-spiperone; from tissue; host or cells: rat striatum (striatal membranes)
Description: D2 antagonist binding. Preparation of rat striatal membranes for (3H)-spiperone (specific activity 21-24 Ci/mmol) binding was carried out in a similar manner as described for D1-binding, Hyttel et al., J. Neural. Transm., 68, 171 (1987).
IC50 values were calculated by semi-log plot and linear regression analysis.

5-HT1A = target: T2, 5-HT1A (Rattus norvegicus, UniProt P19327); test: 5-HT1A radioligand binding ([3H]-8-OH-DPAT); set-up: species or system rat (male Sprague-Dawley); details: [3H]-8-OH-DPAT, rat cortex; read-out: in vitro binding IC50, 5HT1A
T2 construct: the whole brain with the exception of the brainstem and cerebellum was rapidly removed; from tissue
T2 sequence (P19327 1-422): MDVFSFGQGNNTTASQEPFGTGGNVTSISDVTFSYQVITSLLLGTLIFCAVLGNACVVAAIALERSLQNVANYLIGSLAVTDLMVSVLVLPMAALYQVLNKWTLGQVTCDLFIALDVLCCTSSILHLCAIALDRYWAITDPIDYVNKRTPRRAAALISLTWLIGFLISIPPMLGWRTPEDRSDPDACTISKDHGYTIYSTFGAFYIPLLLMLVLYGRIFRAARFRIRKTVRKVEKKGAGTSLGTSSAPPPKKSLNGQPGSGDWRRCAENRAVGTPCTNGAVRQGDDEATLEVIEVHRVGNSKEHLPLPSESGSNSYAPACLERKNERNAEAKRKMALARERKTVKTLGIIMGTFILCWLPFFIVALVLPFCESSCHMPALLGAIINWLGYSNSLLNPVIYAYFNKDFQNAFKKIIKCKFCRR
Description: ^b Serotonin 5HT1A ([^3 H]-8OH-DPAT, agonist) rat cortex.
5-HT1A radioligand binding. Male Sprague-Dawley rats (160-225 g) were killed by decapitation and the whole brain with the exception of the brainstem and cerebellum was rapidly removed, weighed and chilled in ice-cold 0.9% NaCl. Each brain was homogenized (Ultra-Turrax, 20 s) in 10 mL ice-cold 50 mM Tris buffer (pH 8.0 at 25° C.) containing 120 mM NaCl, 4 mM CaCl2 and 4 mM MgCl2 and centrifuged at 20,000 g's at 4° C. for 10 minutes. Pellets were resuspended in 10 mL fresh buffer and preincubated for 10 minutes in a 37° C. waterbath and then recentrifuged. Final pellets were homogenized in 100 volumes (w/v) of Tris buffer (as described above) containing 10 μM pargyline. The incubation tubes were kept on ice in triplicates and received 100 μL drug solution in water (or water for total binding) and 1000 μL membrane suspension (corresponds to 10 mg original tissue). The binding experiment was initiated by addition of 100 μL of (3H)-8-OH-DPAT (specific activity 143-158 Ci/mmol) in ascorbic acid (the final incubation concentration was 1 nM (3H)-8-OH-DPAT in 0.1% ascorbic acid). After incubation for 15 minutes at 37° C. the reaction was terminated by separation of the free radioligand from bound by rapid vacuum filtration using a cell harvester equipment (O. M. Teknik, Denmark). The tubes were rinsed with 4 mL and the filters (Whatman GF/F 25 mm) were washed twice with 4 mL ice-cold 0.9% NaCl.
The radioactivity of the filters was measured in a liquid scintillation counter (efficiency 41%) in 5 mL Picofluor®. Specific binding (70-75% of total binding) was defined as the radioactivity displaced by 10 μM 5-HT. IC50 values were calculated by semi-log plot and linear regression analysis.

5-HT receptor = test: 5-HTP accumulation (5-HT synthesis rate) in non-pretreated rats after NSD 1015; assay type: in vivo, rat (male Sprague-Dawley)
Description: observations are commented to the right. After the session the rats were
accumulation in the NErich cortical regions and 5HTP in the limbic
(§1) Injection volumes were 5 mL/kg.

DA receptor [1] = test: DA metabolism (DOPAC, HVA levels) in habituated rats; assay type: in vivo, rat (male Sprague-Dawley); details: for response vs control in vivo at 100 µmol/kg: Rattus norvegicus, sc, 1 h
Description: (§2) Footnotes Table 3. The rats were habituated to the motility meters 60 min
The rats were immediately killed after the activity session, striata
and limbic levels of DOPAC and 5HIAA were measured by means of HPLCEC. *p
In the experiments with habituated rats no NSD was administered and the animals were killed one hour after drug administration. […] The levels were expressed as % of controls (DOPAC and 5-HIAA see Table 3). The in vivo brain microdialysis experiments were performed in conscious rats as described by Waters et al., Eur. J. Pharm., 187, 425-34 (1990).
as §1
After the activity session the rats were killed and the brain levels of HVA and DOPAC were measured (data are expressed as means ±SEM).

habituated rats = test: Locomotor activity and behavior in habituated rats; assay type: in vivo, rat (male Sprague-Dawley); details: habituated rats
Description: as §2
prior to the activity session.
as §1
Locomotor activity was measured in rats which were habituated 60 minutes to the activity meters before drug injection. The activity was measured for the subsequent 60 minutes and expressed as % of controls (means ±SEM, n=4).

[2] = system: central dopamine receptors; test: Locomotor activity and DA synthesis in reserpinized rats; assay type: in vivo, rat
DA receptor [3] = test: DOPA accumulation (DA synthesis rate) in non-pretreated rats after NSD 1015
non-pretreated rats [4] = test: Locomotor activity and gross behavior in non-habituated (non-pretreated) rats; details: non-pretreated rats
Source text: Immediately after drug administration, the rats were placed in the test cages (one rat/cage) and put into the motility meters. […] Observations of gross behavior were made throughout the activity sessions through semi-transparent mirrors.
Animals used in the biochemical and motor activity experiments were male rats of the Sprague-Dawley strain (ALAB, Sollentuna, Sweden), weighing 200-300 g. The rats were kept 5 per cage with free access to water and food (except for the starved animals for the experiments with per oral administration, who were only allowed water the last 18 hours before testing), at least one week from arrival until used in the experiments.
All substances to be tested were dissolved in saline immediately before use, occasionally with the addition of a few drops of glacial acetic acid and/or moderate heating in order to obtain complete dissolution. Injection volumes were 5 mL/kg.
Analysis of variance (ANOVA) followed by Fischer's test was used for the statistical calculations.
In vivo behavioral data was obtained with rats injected with drug and 5 minutes later put into the motility chambers for the first time. The motor activity was measured for the subsequent 30 minutes (accumulated counts/30 minutes) and expressed as % of saline treated controls.

[5] = system: d-amphetamine-induced hyperactivity; test: d-Amphetamine-induced hyperactivity in habituated rats; assay type: in vivo, rat; details: test compound 14 mg/kg, sc; d-amphetamine 5 mg/kg
DA receptor [6] = details: after NSD1015; Johansson et al.; cited from earlier work
non-pretreated rats [7] = details: Johansson et al.; cited from earlier work
DA receptor [8] = details: no NSD1015 treatment; Johansson et al.; cited from earlier work
[9] = comparison values, source not given; cited from earlier work
D3 = details: Sokoloff, et al., Nature, 347 146-51 (1990); series of classical and atypical neuroleptics; cited from earlier work
dopamine autoreceptors = test: GBL-model (DA synthesis rate; presynaptic dopamine autoreceptors); assay type: in vivo, rat; details: apomorphine […], sc; GBL 750 mg/kg, i.p.
Source text: The effects on DOPA accumulation in the GBL-model is considered to reflect an event at the presynaptic dopamine autoreceptors (for further details, see Svensson et al., Nunyn-Schmiedeberg's Arch. Pharm., 334, 234(1986)).

in vivo = test: in vivo; set-up: species or system rat (male Sprague-Dawley); details: rat
Description: This is in contrast to the actions of the preferential dopamine autoreceptor antagonists (+)-AJ76 and (+)-UH232 5. The blood levels of (±)-34 were measured after oral (40 μmol/kg) and iv (5 μmol/kg) administration of the drug to male Sprague-Dawley rats (250-300 g) that were cannulated with catheters in the jugular vein and the arteria carotis. The levels of (±)-34 were measured in whole blood by means of GC-MS. […] The oral availability is considerably better than the values obtained for (+)-UH232 and (+)-AJ76 (approximately 6 and 3%, respectively).

[10] = system: central dopamine receptors; details: Hacksell et al., J. Med. Chem., 24, 1475 (1981); cited from earlier work

T1 sequence (P61169 whole entry): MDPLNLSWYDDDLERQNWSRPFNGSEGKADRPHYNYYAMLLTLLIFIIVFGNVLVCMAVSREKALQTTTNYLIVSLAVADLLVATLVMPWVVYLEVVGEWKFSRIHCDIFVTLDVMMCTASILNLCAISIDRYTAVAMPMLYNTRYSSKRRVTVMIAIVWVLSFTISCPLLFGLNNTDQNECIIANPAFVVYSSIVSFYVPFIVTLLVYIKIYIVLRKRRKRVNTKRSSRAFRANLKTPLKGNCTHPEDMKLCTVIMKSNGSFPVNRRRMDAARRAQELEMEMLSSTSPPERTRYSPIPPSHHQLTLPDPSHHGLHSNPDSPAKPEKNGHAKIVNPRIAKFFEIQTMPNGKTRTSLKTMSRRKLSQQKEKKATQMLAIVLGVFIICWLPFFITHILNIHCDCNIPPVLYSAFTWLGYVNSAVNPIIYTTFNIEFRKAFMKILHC

CCCN1CCC[C@H](c2cccc(C#N)c2)C1 [R-(+)-34, R-(+)-3-(3-Cyanophenyl-N-n-propyl)piperidine]
affinity for D2 receptors (in words) (D2 receptors; (3H)-Spiperone binding): essentially no affinity for D2 receptors | IC50 (D2 receptors; read-out: in vitro binding IC50, D2 -spip, [3H]-spiperone, rat striatum): 100 µM | IC50 (5-HT1A): 14 µM | 5-HTP acc Limbic Region (5-HT receptor; 50 po): 99 ± 3 % of saline controls | 5-HTP acc Limbic Region (5-HT receptor; 50 sc): 82 ± 1 % of saline controls | response vs control in vivo at 100 µmol/kg (DA receptor [1]; read-out: DOPAC limbic): 120 ± 5% | response vs control in vivo at 100 µmol/kg (DA receptor [1]; read-out: DOPAC striatum): 117 ± 3% | limbic DOPAC levels (in words) (DA receptor [1]; rat, in vivo): only weakly elevated limbic DOPAC | Behavioral observations (habituated rats; 100 μmol/kg sc): Activation | locomotor activity in habituated rats (in words) (habituated rats): stimulates the locomotor activity in habituated rats | motor activity in reserpinized rats ([2]; 50 μmol/kg, sc, reserpine 5 mg/kg, 18 h before): 6±2 counts/30 min | DA synthesis rate / DOPA accumulation in reserpinized rats (in words) ([2]; reserpinized rats): failed to produce locomotor stimulation or to affect the DA synthesis rate in reserpinized rats | locomotor stimulation in reserpinized rats (in words) ([2]; reserpinized rats): failed to activate the reserpinized rats | locomotor stimulation in reserpinized rats (in words) ([2]; reserpinized rats, listed as (R)-34): failed to produce locomotor stimulation | DOPA acc Cortex (DA receptor [3]; 50 po): 103 ± 9 % of saline controls | DOPA acc Stratium (DA receptor [3]; 50 po): 172 ± 8 % of saline controls | DOPA acc Cortex (DA receptor [3]; 50 sc): 145 ± 11 % of saline controls | DOPA acc Stratium (DA receptor [3]; 50 sc): 281 ± 11 % of saline controls | Gross Behavioral Observations (non-pretreated rats [4]; 50 po): No change | Motor Act. (non-pretreated rats [4]; 50 po, 30 min): 133 ± 14 % of saline controls | Gross Behavioral Observations (non-pretreated rats [4]; 50 sc): stimulat.

CCCN[C@@H]1CCc2c(OC)cccc2[C@@H]1C [(+)-AJ76, (+)-cis-1S,2R-5-methoxy-1-methyl-2-(N-n-propylamino)tetralin]
effect on activation induced by high dose d-amphetamine [5]: clearly blocked the stimulation | Dopa accumulation in normal animals (DA receptor [6]): raise the Dopa accumulation | locomotor activity (photocell motility meters) (non-pretreated rats [7]): increase the locomotor activity | levels of the DA metabolites DOPAC and HVA (DA receptor [8]): raise the levels of the DA metabolites DOPAC and HVA | oral availability [9]: approximately 3% | preference for the D3 site (D3): highest preference for the D3 site

CN1CCc2cccc3c2[C@H]1Cc1ccc(O)c(O)c1-3 [apomorphine, reference compound]
effect on GBL-elevated limbic and striatal DA synthesis rate (dopamine autoreceptors): completely reversed

CCCN1CCCC(c2cccc(C#N)c2)C1 (racemic) [(±)-34, 3-(3-cyanophenyl-N-n-propyl)piperidine]
half-life (in vivo; iv): ~3 h | bioavailability (in vivo; po, oral bioavailability): ~78% | direct receptor agonistic effects in reserpinized rats [10]: no direct receptor agonistic effects

CCCN(CCC)[C@@H]1CCc2c(OC)cccc2[C@@H]1C [(+)-UH232, (+)-cis-1S,2R-5-methoxy-1-methyl-2-(N,N-di-n-propylamino)tetralin]
Dopa accumulation in normal animals (DA receptor [6]): raise the Dopa accumulation | locomotor activity (photocell motility meters) (non-pretreated rats [7]): increase the locomotor activity | levels of the DA metabolites DOPAC and HVA (DA receptor [8]): raise the levels of the DA metabolites DOPAC and HVA | oral availability [9]: approximately 6% | preference for the D3 site (D3): highest preference for the D3 site
